In patent US6787550B1, “Indole derivatives and their use for the treatment of osteoporosis amongst other applications” (Nikem Research S.r.l., priority 1999, dated 2004):

Tested on: not given
Settings: not given

SMILES	melting point [°C]
CC1(C)CC(NC(=O)c2ccc(-c3cc4cc(Cl)c(Cl)cc4[nH]3)c(OCc3ccccc3)c2)CC(C)(C)N1 [Example 2, 4-(5,6-Dichloro-1H-indol-2-yl)-3-benzyloxy-N-(2,2,6,6-tetramethylpiperidin-4-yl)-benzamide]	220
CC1(C)CC(NC(=O)c2ccc(-c3cc4cc(Cl)c(Cl)cc4[nH]3)c(O)c2)CC(C)(C)N1 [Example 3, 4-(5,6-Dichloro-1H-indol-2-yl)-3-hydroxy-N-(2,2,6,6-tetramethylpiperidin-4-yl)-benzamide]	> 270
CCCOc1cc(C(=O)NC2CC(C)(C)NC(C)(C)C2)ccc1-c1cc2cc(Cl)c(Cl)cc2[nH]1 [Example 4, 4-(5,6-Dichloro-1H-indol-2-yl)-3-propoxy-N-(2,2,6,6-tetramethylpiperidin-4-yl)benzamide]	> 250

Tested on: osteoclast cultures
Settings: literature background; cited from earlier work

SMILES	inhibition of bone resorption
CO/C1=C\C(C)=C\[C@@H](C)[C@@H](O)[C@@H](C)C/C(C)=C/C=C/[C@H](OC)[C@@H]([C@@H](C)[C@@H](O)[C@H](C)[C@@]2(O)C[C@@H](O)[C@H](C)[C@@H](C(C)C)O2)OC1=O [bafilomycin A1]	able to inhibit bone resorption

Tested on: osteoclast proton pump
Settings: avian osteoclast membrane vesicles; literature background; cited from earlier work

SMILES	inhibition of proton transport
CO/C1=C\C(C)=C\[C@@H](C)[C@@H](O)[C@@H](C)C/C(C)=C/C=C/[C@H](OC)[C@@H]([C@@H](C)[C@@H](O)[C@H](C)[C@@]2(O)C[C@@H](O)[C@H](C)[C@@H](C(C)C)O2)OC1=O [bafilomycin A1]	inhibited
Cc1nc2c(OCc3ccccc3)cccn2c1CC#N [SCH 28080]	not inhibited
C[C@@H]1O[C@@H](O[C@H]2C[C@@H](O)[C@]3(CO)[C@H]4[C@H](O)C[C@]5(C)[C@@H](C6=CC(=O)OC6)CC[C@]5(O)[C@@H]4CC[C@]3(O)C2)[C@H](O)[C@H](O)[C@H]1O [ouabain]	not inhibited
CCN1C(=O)C=CC1=O [N-ethylmaleimide (NEM), N-ethylmaleimide]	inhibited
[Na+].[Na+].[Na+].[O]=[V]([O-])([O-])[O-] [sodium orthovanadate]	not inhibited
